# Calls of active or inactive are those of the source. The calls are words filed in the database; no cut-off is given here. *1 amine or outer side, *2 acyl side, *3 side chain or, on linkers, in order; H or OH if unused. Where a SMILES comes first, the peptide text is derived from it. The star is where a group is joined. AMC = Cc1cc(=O)oc2cc(N*)ccc12; Suc = O=C(CCC(=O)[*:2])[*:1]; Decanoyl = CCCCCCCCCC(=O)*
# Assays:
# [1] = biological target: T1, NAD-dependent protein deacetylase sirtuin-2 (Homo sapiens) (UniProt Q8IXJ6); assay: Substrate activity at human N-terminal His-tagged SIRT2 (56 to 356 residues) expressed in Escherichia coli at 0.5 uM measured after 2 hrs in presence of NAD+ and trypsin by fluorescence assay
# T1 sequence (whole entry): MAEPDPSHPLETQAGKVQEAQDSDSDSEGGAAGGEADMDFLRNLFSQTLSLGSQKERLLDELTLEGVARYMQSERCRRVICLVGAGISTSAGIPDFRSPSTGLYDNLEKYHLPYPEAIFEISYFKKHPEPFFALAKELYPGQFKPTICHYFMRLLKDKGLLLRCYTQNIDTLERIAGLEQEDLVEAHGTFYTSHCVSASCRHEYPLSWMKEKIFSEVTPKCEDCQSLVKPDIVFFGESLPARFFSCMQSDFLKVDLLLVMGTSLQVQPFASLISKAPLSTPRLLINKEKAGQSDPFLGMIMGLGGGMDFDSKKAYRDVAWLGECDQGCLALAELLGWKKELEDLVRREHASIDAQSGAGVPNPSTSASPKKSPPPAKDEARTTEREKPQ
# [2] = biological target: T2, NAD-dependent protein deacetylase sirtuin-1 (Homo sapiens) (UniProt Q96EB6); assay: Substrate activity at human N-terminal His-tagged SIRT1 (183 to 664 residues) expressed in Escherichia coli at 0.5 uM measured after 2 hrs in presence of NAD+ and trypsin by fluorescence assay
# T2 sequence (whole entry): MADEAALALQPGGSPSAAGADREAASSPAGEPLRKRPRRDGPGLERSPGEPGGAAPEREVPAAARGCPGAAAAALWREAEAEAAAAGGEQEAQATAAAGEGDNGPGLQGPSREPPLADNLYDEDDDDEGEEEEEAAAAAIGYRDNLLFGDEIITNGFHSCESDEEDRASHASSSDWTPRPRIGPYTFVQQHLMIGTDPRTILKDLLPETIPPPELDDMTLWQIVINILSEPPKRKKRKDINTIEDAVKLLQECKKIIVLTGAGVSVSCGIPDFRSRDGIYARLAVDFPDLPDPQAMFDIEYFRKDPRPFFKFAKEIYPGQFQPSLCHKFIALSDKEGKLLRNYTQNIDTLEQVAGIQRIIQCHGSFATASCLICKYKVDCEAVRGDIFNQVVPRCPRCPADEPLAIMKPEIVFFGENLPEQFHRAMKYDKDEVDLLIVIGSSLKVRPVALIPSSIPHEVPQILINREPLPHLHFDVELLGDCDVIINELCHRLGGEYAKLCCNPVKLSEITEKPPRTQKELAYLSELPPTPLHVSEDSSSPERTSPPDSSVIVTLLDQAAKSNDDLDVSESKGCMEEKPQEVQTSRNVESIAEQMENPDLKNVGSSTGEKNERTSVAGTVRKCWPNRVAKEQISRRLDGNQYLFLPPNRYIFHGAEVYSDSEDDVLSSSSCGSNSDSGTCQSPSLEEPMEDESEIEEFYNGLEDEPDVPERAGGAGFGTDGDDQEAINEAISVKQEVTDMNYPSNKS
# [3] = biological target: NAD-dependent protein deacylase sirtuin-5, mitochondrial (Homo sapiens) (UniProt Q9NXA8); assay: Substrate activity at human N-terminal His-tagged SIRT5 (34 to 302 residues) expressed in Escherichia coli at 50 uM measured after 2 hrs in presence of NAD+ and trypsin by fluorescence assay
# [4] = biological target: T1, NAD-dependent protein deacetylase sirtuin-2 (Homo sapiens); assay: Substrate activity at human N-terminal His-tagged SIRT2 (56 to 356 residues) expressed in Escherichia coli at 50 uM measured after 2 hrs in presence of NAD+ and trypsin by fluorescence assay
# [5] = biological target: T3, NAD-dependent protein deacetylase sirtuin-3, mitochondrial (Homo sapiens) (UniProt Q9NTG7); assay: Substrate activity at human N-terminal His-tagged SIRT3 (122 to 391 residues) expressed in Escherichia coli at 0.5 uM measured after 2 hrs in presence of NAD+ and trypsin by fluorescence assay
# T3 sequence (whole entry): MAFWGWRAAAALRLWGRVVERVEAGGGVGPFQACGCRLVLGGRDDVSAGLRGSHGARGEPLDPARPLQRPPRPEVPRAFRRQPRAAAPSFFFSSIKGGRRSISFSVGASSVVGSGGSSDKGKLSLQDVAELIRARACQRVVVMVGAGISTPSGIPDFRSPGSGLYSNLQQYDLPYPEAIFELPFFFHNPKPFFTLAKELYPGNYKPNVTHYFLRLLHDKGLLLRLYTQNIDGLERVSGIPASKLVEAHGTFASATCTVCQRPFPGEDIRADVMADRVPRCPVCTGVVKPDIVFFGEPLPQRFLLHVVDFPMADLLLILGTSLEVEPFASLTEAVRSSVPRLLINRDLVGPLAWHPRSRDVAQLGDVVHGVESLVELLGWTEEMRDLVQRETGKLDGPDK
# [6] = biological target: NAD-dependent protein deacylase sirtuin-6 (Homo sapiens) (UniProt Q8N6T7); assay: Substrate activity at human N-terminal His-tagged SIRT6 (1 to 355 residues) expressed in Escherichia coli at 5 uM measured after 2 hrs in presence of NAD+ and trypsin by fluorescence assay
# [7] = biological target: T4, NAD-dependent protein deacetylase sirtuin-7 (Homo sapiens) (UniProt Q9NRC8); assay: Substrate activity at human N-terminal His-tagged SIRT7 (68 to 354 residues) expressed in Escherichia coli at 50 uM measured after 2 hrs in presence of NAD+ and trypsin by fluorescence assay
# T4 sequence (whole entry): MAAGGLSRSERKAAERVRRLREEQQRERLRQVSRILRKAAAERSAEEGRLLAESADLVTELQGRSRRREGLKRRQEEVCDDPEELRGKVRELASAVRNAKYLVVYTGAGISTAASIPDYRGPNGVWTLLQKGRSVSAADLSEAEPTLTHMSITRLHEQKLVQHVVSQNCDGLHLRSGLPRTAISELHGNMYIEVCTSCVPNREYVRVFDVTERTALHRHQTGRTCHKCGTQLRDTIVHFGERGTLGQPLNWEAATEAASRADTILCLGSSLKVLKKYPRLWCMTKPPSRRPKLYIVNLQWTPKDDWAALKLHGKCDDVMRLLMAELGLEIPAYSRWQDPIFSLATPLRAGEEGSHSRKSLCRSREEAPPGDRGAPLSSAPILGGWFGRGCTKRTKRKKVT
# [8] = biological target: T3, NAD-dependent protein deacetylase sirtuin-3, mitochondrial (Homo sapiens); assay: Substrate activity at human N-terminal His-tagged SIRT3 (122 to 391 residues) expressed in Escherichia coli at 50 uM measured after 2 hrs in presence of NAD+ and trypsin by fluorescence assay
# [9] = biological target: NAD-dependent protein deacylase sirtuin-6 (Homo sapiens) (UniProt Q8N6T7); assay: Substrate activity at human N-terminal His-tagged SIRT6 (1 to 355 residues) expressed in Escherichia coli at 0.5 uM measured after 2 hrs in presence of NAD+ and trypsin by fluorescence assay
# [10] = biological target: NAD-dependent protein deacylase sirtuin-5, mitochondrial (Homo sapiens) (UniProt Q9NXA8); assay: Substrate activity at human N-terminal His-tagged SIRT5 (34 to 302 residues) expressed in Escherichia coli at 5 uM measured after 2 hrs in presence of NAD+ and trypsin by fluorescence assay
# [11] = biological target: T1, NAD-dependent protein deacetylase sirtuin-2 (Homo sapiens); assay: Substrate activity at human N-terminal His-tagged SIRT2 (56 to 356 residues) expressed in Escherichia coli at 5 uM measured after 2 hrs in presence of NAD+ and trypsin by fluorescence assay
# [12] = biological target: NAD-dependent protein deacylase sirtuin-6 (Homo sapiens) (UniProt Q8N6T7); assay: Substrate activity at human N-terminal His-tagged SIRT6 (1 to 355 residues) expressed in Escherichia coli at 50 uM measured after 2 hrs in presence of NAD+ and trypsin by fluorescence assay
# [13] = biological target: T3, NAD-dependent protein deacetylase sirtuin-3, mitochondrial (Homo sapiens); assay: Substrate activity at human N-terminal His-tagged SIRT3 (122 to 391 residues) expressed in Escherichia coli at 5 uM measured after 2 hrs in presence of NAD+ and trypsin by fluorescence assay
# [14] = biological target: NAD-dependent protein deacylase sirtuin-5, mitochondrial (Homo sapiens) (UniProt Q9NXA8); assay: Substrate activity at human N-terminal His-tagged SIRT5 (34 to 302 residues) expressed in Escherichia coli at 0.5 uM measured after 2 hrs in presence of NAD+ and trypsin by fluorescence assay
# [15] = biological target: T2, NAD-dependent protein deacetylase sirtuin-1 (Homo sapiens); assay: Substrate activity at human N-terminal His-tagged SIRT1 (183 to 664 residues) expressed in Escherichia coli at 5 uM measured after 2 hrs in presence of NAD+ and trypsin by fluorescence assay
# [16] = biological target: T1, NAD-dependent protein deacetylase sirtuin-2 (Homo sapiens); assay: Substrate activity at human N-terminal His-tagged SIRT2 (56 to 356 residues) expressed in Escherichia coli at 5 uM measured after 1 hr in presence of NAD+ and trypsin by fluorescence assay
# [17] = biological target: T4, NAD-dependent protein deacetylase sirtuin-7 (Homo sapiens); assay: Substrate activity at human N-terminal His-tagged SIRT7 (68 to 354 residues) expressed in Escherichia coli at 5 uM measured after 2 hrs in presence of NAD+ and trypsin by fluorescence assay
# [18] = biological target: T4, NAD-dependent protein deacetylase sirtuin-7 (Homo sapiens); assay: Substrate activity at human N-terminal His-tagged SIRT7 (68 to 354 residues) expressed in Escherichia coli at 0.5 uM measured after 2 hrs in presence of NAD+ and trypsin by fluorescence assay
# [19] = biological target: T2, NAD-dependent protein deacetylase sirtuin-1 (Homo sapiens); assay: Substrate activity at human N-terminal His-tagged SIRT1 (183 to 664 residues) expressed in Escherichia coli at 50 uM measured after 2 hrs in presence of NAD+ and trypsin by fluorescence assay
# [20] = biological target: NAD-dependent protein deacylase sirtuin-5, mitochondrial (Homo sapiens) (UniProt Q9NXA8); assay: Substrate activity at human N-terminal His-tagged SIRT5 (34 to 302 residues) expressed in Escherichia coli at 5 uM measured after 1 hr in presence of NAD+ and trypsin by fluorescence assay
# NAD-dependent protein deacylase sirtuin-6 (Homo sapiens), sequence (Q8N6T7 whole entry, the tested form may be a part): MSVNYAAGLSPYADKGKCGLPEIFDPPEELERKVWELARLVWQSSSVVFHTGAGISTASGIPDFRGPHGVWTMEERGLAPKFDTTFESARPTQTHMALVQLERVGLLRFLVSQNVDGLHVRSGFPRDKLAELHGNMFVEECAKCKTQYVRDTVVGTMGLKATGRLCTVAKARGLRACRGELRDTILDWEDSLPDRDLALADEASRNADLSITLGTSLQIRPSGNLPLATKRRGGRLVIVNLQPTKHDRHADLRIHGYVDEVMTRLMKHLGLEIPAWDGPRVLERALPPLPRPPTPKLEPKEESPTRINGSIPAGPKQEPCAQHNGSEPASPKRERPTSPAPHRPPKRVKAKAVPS
# NAD-dependent protein deacylase sirtuin-5, mitochondrial (Homo sapiens), sequence (Q9NXA8 37-310 limits assumed): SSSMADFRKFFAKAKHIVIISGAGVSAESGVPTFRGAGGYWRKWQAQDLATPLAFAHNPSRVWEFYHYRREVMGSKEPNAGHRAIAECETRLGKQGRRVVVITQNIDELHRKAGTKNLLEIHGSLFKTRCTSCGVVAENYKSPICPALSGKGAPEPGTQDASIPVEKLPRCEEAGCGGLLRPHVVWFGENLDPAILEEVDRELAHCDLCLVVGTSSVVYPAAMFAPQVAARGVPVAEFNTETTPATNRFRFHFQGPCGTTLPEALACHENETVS
Activity [1],Activity [2],Activity [3],Activity [4],Activity [5],Activity [6],Activity [7],Activity [8],Activity [9],Activity [10],Activity [11],Activity [12],Activity [13],Activity [14],Activity [15],Activity [16],Activity [17],Activity [18],Activity [19],Activity [20],Structure (SMILES)
2.97 RFU,2.97 RFU,1.24 RFU,79.9 RFU,0.51 RFU,0.33 RFU,0.73 RFU,1.86 RFU,0.39 RFU,0.42 RFU,20.6 RFU,0.73 RFU,0.66 RFU,0.3 RFU,1.37 RFU,Active,0.38 RFU,0.28 RFU,4.13 RFU,–,CCCCCCCCCC(=O)NCCCC[C@H](NC(=O)[C@H](CC(=O)O)NC(=O)[C@@H](NC(=O)[C@H](CCC(=O)O)NC(C)=O)[C@@H](C)O)C(=O)Nc1ccc2c(C)cc(=O)oc2c1 (Ac-ETDK(Decanoyl)-{AMC})
0.2 RFU,0.2 RFU,1.41 RFU,0.9 RFU,0.5 RFU,0.37 RFU,1.14 RFU,1.42 RFU,0.41 RFU,25.1 RFU,0.21 RFU,1.14 RFU,0.56 RFU,3.07 RFU,0.35 RFU,–,0.32 RFU,0.28 RFU,0.98 RFU,Active,CC(=O)N[C@@H](CC(C)C)C(=O)NCC(=O)N[C@@H](CO)C(=O)N[C@@H](CCCCNC(=O)CCC(=O)O)C(=O)Nc1ccc2c(C)cc(=O)oc2c1 (Ac-LGSK(Suc)-{AMC})
0.24 RFU,0.24 RFU,1.5 RFU,1.03 RFU,0.48 RFU,0.37 RFU,1.18 RFU,1.32 RFU,0.38 RFU,21.5 RFU,0.25 RFU,1.18 RFU,0.53 RFU,3.36 RFU,0.44 RFU,–,0.41 RFU,0.3 RFU,1.05 RFU,Active,CC(=O)N[C@@H](CO)C(=O)N[C@@H](CC(C)C)C(=O)NCC(=O)N[C@@H](CCCCNC(=O)CCC(=O)O)C(=O)Nc1ccc2c(C)cc(=O)oc2c1 (Ac-SLGK(Suc)-{AMC})
1.38 RFU,1.38 RFU,1.08 RFU,13.5 RFU,0.67 RFU,0.3 RFU,0.73 RFU,1.64 RFU,0.4 RFU,0.39 RFU,7.07 RFU,0.73 RFU,1.04 RFU,0.31 RFU,2.13 RFU,Active,1.03 RFU,0.29 RFU,1.34 RFU,–,CCCCCCCCCC(=O)NCCCC[C@H](NC(=O)[C@@H](NC(=O)[C@H](CO)NC(=O)[C@H](CO)NC(C)=O)[C@@H](C)CC)C(=O)Nc1ccc2c(C)cc(=O)oc2c1 (Ac-SSIK(Decanoyl)-{AMC})

# Source: ChEMBL document CHEMBL4680222, “Sensitive fluorogenic substrates for sirtuin deacylase inhibitor discovery” (Eur J Med Chem, 2020)
